# From patent US20230321188A1, “AUTOPHAGY INDUCING PEPTIDES” (TRANSLATIONAL HEALTH SCIENCE AND TECHNOLOGY INSTITUTE, priority 2020, published 2023)
# Where a SMILES comes first, the peptide text is derived from it.
# Tests used:
# mTOR = mTOR independent activation of autophagy: western blot of S6Kinase / 4E-BP1 phosphorylation; type: cell-based; conditions: Huh7 cells, peptides 10 μM, 6 h
# Experimental: FIG. 5 depicts mTOR independent activation of autophagy Huh7 cells were treated with peptides (10 μM) and torin1 (1 μM) for 6 h and lysed in lysis buffer (1mM EDTA, 20 mM Tris-HCl pH 7.4, 250 mM NaCl, PMSF, and PI). Western blot was performed by GAPDH (internal control), […] and S6K1 antibodies. The peptides were tested for inhibition of mTOR by testing for phosphorylation of enzyme p70S6K. The phosphorylation of p-p70S6K at threonine 389 has been used as a hallmark of activation by mTOR.
# Huh7/HeLa cells were treated with peptides 10 μM for 6 h and protein lysates were analysed by western blotting using pS6Kinase, S6Kinase, p-4E-BP1, 4E-BP1 and GAPDH antibodies. Torin 1 was used as positive control.
# S. typhimurium = type: cell-based; conditions: 24 h
# [1] = system: S. typhimurium (strain Xen33); assay: In vivo S. typhimurium (Xen33) infection and disease progression in FVB mice
# Experimental: For the in vivo studies, mouse S. typhimurium (strain Xen33) infection carried out as per the previous protocol of Griffin et al., 2011. In brief, mice were pre-treated with streptomycin. Water and food were withdrawn before 4hours of infection. For the experiments, 6-8 weeks of FVB male mice were utilized in a group of 5. Mice related experiments and its maintenance were carried out in a small animal facility at THSTI, Faridabad. […] FVB mice were infected orally with Xen-33(S. typhimurium) and its bioluminescence was measured by in vivo imaging with IVIS Lumina (Perkin Elmer) and quantified with living image software version 4.2. Bioluminescent levels were measured as radiance (p/sec/cm^2/sr), by using a pseudo scale for measurement in which blue represents low intensity and red represents high intensity. Posts in vivo imaging, the bacterial burden in faecal sample were also measured.
# Mice having Salmonella typhimurium infection or non-infected were sacrificed and their intestine was removed for immunohistochemistry studies. Intestines were washed with PBS and fixed in 10% formaldehyde. Thereafter, fine-sectioned on a microtome. Tissue blocks were prepared on Paraffin wax and then hematoxylin and eosin (HE) staining was carried out. The finally stained sections were then observed, and images were acquired by using the Ti Eclipse Nikon microscope. The scoring was done by random scoring by different individuals.
# In vivo effect of p7T treatment on S. typhimurium infection and disease progression in FVB mice. Recovery of chronically S. typhimurium infected FVB mice was studied in the presence of P7T&P13T. […] Colon samples were further examined for histological changes. […] The stool was collected, plated on SS agar to determine S. typhimurium colony formation.
# (c) In vivo imaging and intensity quantitation of mice infected with S. typhimurium strain (Xen33) expressing luciferase on the 8th day (n=5 mice per group). […] (i) Immunohistochemistry images (40×) showing expression of HIF-1α and its quantification in the colon (n=5). […] Data representative of triplicates and repeated three times each individual experiments*P<0.05, **P <0.01, ***P<0.001, **** P<0.0001, ns, non-significant. (Student's t-test and one-way ANOVA).
# GAPR-1 [2] = biological target: T1, GAPR-1 (UniProt Q9H4G4 2-154, limits assumed); assay: MicroScale Thermophoresis (MST), purified Gapr-1
# T1 construct: Purified protein used in MST; also called purified Gapr-1
# T1 sequence (looked up): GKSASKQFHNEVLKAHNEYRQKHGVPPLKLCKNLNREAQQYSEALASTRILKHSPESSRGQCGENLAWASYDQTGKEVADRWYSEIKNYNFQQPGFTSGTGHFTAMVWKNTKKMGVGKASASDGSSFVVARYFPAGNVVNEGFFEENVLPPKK
# GAPR-1 [3] = biological target: T1, GAPR-1; assay: MicroScale Thermophoresis (MST), peptide titrated on purified Gapr-1; fraction bound against peptide conc. (M) [3A]
# [4] = FVB mice infected with S. typhimurium
Molecule,interference with phosphorylation of p70S6K and mTOR activity (mTOR),Kd (GAPR-1 [2]),further results
CC(C)C[C@H](NC(=O)[C@H](Cc1ccc(O)cc1)NC(=O)[C@H](CO)NC(=O)[C@H](Cc1c[nH]cn1)NC(=O)[C@H](CC(N)=O)NC(=O)CNC(=O)[C@H](Cc1ccc(O)cc1)NC(=O)[C@@H]1CCCN1C(=O)[C@@H](NC(=O)[C@H](CC(C)C)NC(=O)[C@@H](N)CCCNC(=N)N)C(C)C)C(=O)N[C@@H](CCC(=O)O)C(=O)N[C@@H](CO)C(=O)O [P13T] (H-RLVPYGNHSYLES-OH),did not interfere with the phosphorylation of p70S6K and mTOR activity,–,–
NC(=O)C[C@H](NC(=O)CNC(=O)[C@H](Cc1ccc(O)cc1)NC(=O)[C@@H]1CCCN1)C(=O)N[C@@H](Cc1c[nH]cn1)C(=O)N[C@@H](CO)C(=O)N[C@@H](Cc1ccc(O)cc1)C(=O)O [P3T] (H-PYGNHSY-OH; N-terminus and C-terminus assumed),–,–,inhibition of S. typhimurium (S. typhimurium): 49.5%
CC[C@H](C)[C@H](NC(=O)[C@@H](NC(=O)CNC(=O)[C@@H](N)Cc1ccccc1)[C@@H](C)O)C(=O)N[C@@H](CC(N)=O)C(=O)N[C@@H](CC(N)=O)C(=O)N[C@@H](Cc1ccccc1)C(=O)N[C@@H](CCCNC(=N)N)C(=O)N[C@@H](CC(C)C)C(=O)O [P7T] (H-FGTINNFRL-OH),did not interfere with the phosphorylation of p70S6K and mTOR activity,–,"bacterial burden in faecal sample / stool ([1]; FVB mice infected orally with Xen-33, stool plated on SS agar): significant decrease in bacterial burden; length of the colon [1, 4]: significantly reduced in untreated mice compare to P7T; splenomegaly [1, 4]: difference in splenomegaly was not observed; histopathology score ([1]; intestine/colon H&E staining, FVB mice infected with S. typhimurium): significantly less"
CC(C)C[C@H](NC(=O)CNC(=O)CNC(=O)[C@H](CO)NC(=O)[C@H](CS)NC(=O)[C@H](Cc1ccc(O)cc1)NC(=O)[C@@H](N)CC(C)C)C(=O)N[C@@H](CCCNC(=N)N)C(=O)N[C@@H](Cc1ccccc1)C(=O)N[C@@H](Cc1ccccc1)C(=O)N[C@@H](Cc1c[nH]c2ccccc12)C(=O)N[C@@H](CC(=O)O)C(=O)O [P8T] (H-LYCSGGLRFFWD-OH),–,–,inhibition of S. typhimurium (S. typhimurium): 62.16%
CC(C)C[C@H](NC(=O)[C@H](C)NC(=O)[C@H](Cc1c[nH]cn1)NC(=O)[C@H](CC(C)C)NC(=O)[C@H](CC(C)C)NC(=O)[C@H](CC(C)C)NC(=O)[C@@H](NC(=O)[C@@H](NC(=O)[C@@H](N)CCC(N)=O)[C@@H](C)O)C(C)C)C(=O)O [P9T] (H-QTVLLLHAL-OH),did not interfere with the phosphorylation of p70S6K and mTOR activity,–,–
LYCSGGLRFFWD (also called peptide P8T) [P8T],–,120 nM,–
RLVPYGNHSYLES (also called peptide P13T) [P13T],–,70 nM,–
PYGNHSY (also called peptide P3T) [P3T],–,–,Kd (GAPR-1 [3]): 210 nM
FGTINNFRL (also called peptide P7T) [P7T],–,130 nM,–
QTVLLLHAL (also called peptide P9T) [P9T],–,1560 nM,–
